Source: patent publication US20240228535A1 (priority 2022, published 2024)

Target: SARS2 coronavirus 3CL protease (Severe acute respiratory syndrome coronavirus 2, UniProt P0DTD1)
Assay: biochemical
Details: 5 nM enzyme, 30 min pre-incubation with compound, 15 μM peptide substrate, 4 h at room temperature; read-out: FRET Potency (nM); IC50 values in the SARS2 3CLPro FRET assay

Point of comparison: `C[C@@H]1C[C@@H](C[C@H](NC(=O)c2cc(Cl)ccc2NC(=O)C2CC2C(F)(F)F)C(=O)C(=O)NC2CC2)C(=O)N1` (stereo partly drawn) [Example 84, 5-chloro-N-[(1S)-3-(cyclopropylamino)-1-[[(3S,5R)-5-methyl-2-oxo-pyrrolidin-3-yl]methyl]-2,3-dioxo-propyl]-2-[[2-(trifluoromethyl)cyclopropane-carbonyl]amino]benzamide], IC50 20.6 nM. Against it:
- C[C@@H]1C[C@@H](C[C@H](NC(=O)c2cc(Cl)ccc2NC(=O)C2CC23CC3)C(=O)C(=O)NC2CC2)C(=O)N1 (stereo partly drawn) [Example 82, N-[4-chloro-2-[[(1S)-3-(cyclopropylamino)-1-[[(3S,5R)-5-methyl-2-oxo-pyrrolidin-3-yl]methyl]-2,3-dioxo-propyl]carbamoyl]phenyl] spiro[2.2]pentane-2-carboxamide] — 1.9-fold lower, 10.8 nM
- C[C@@H]1C[C@@H](C[C@H](NC(=O)c2cc(Cl)ccc2NC(=O)C2CC23CC3)C(=O)C(=O)NC2CC2)C(=O)N1 (stereo partly drawn) [Example 83, N-[4-chloro-2-[[(1S)-3-(cyclopropylamino)-1-[[(3S,5R)-5-methyl-2-oxo-pyrrolidin-3-yl]methyl]-2,3-dioxo-propyl]carbamoyl]phenyl] spiro[2.2]pentane-2-carboxamide] — 2-fold lower, 10.5 nM
- C[C@@H]1C[C@@H](C[C@H](NC(=O)c2cc(Cl)ccc2NC(=O)C2CC2C(F)(F)F)C(=O)C(=O)NC2CC2)C(=O)N1 (stereo partly drawn) [Example 85, 5-chloro-N-[(1S)-3-(cyclopropylamino)-1-[[(3S,5R)-5-methyl-2-oxo-pyrrolidin-3-yl]methyl]-2,3-dioxo-propyl]-2-[[2-(trifluoromethyl)cyclopropane-carbonyl]amino]benzamide] — within 1.5-fold, 15.2 nM
- C[C@@H]1C[C@@H](C[C@H](NC(=O)c2cc(Cl)ccc2NC(=O)c2cc(C(F)(F)F)ccn2)C(=O)C(=O)NC2CC2)C(=O)N1 [Example 86, N-[4-chloro-2-[[(1S)-3-(cyclopropylamino)-1-[[(3S,5R)-5-methyl-2-oxo-pyrrolidin-3-yl]methyl]-2,3-dioxo-propyl]carbamoyl]phenyl]-4-(trifluoromethyl)pyridine-2-carboxamide] — 3-fold lower, 6.8 nM
- C[C@@H]1C[C@@H](C[C@H](NC(=O)c2cc(Cl)c(F)cc2NC(=O)c2ccnc(C(F)(F)F)c2)C(=O)C(=O)NC2CC2)C(=O)N1 [Example 87] — 3.1-fold lower, 6.6 nM
- CNC(=O)C(=O)C(CC1C[C@@H](C(F)(F)F)NC1=O)NC(=O)c1cc(C#N)ccc1NC(=O)CCC(F)(F)F (stereo partly drawn) [Example 88, 5-cyano-N-[3-(methylamino)-2,3-dioxo-1-[[(5S)-2-oxo-5-(trifluoromethyl)pyrrolidin-3-yl]methyl]propyl]-2-(4,4,4-trifluorobutanoylamino) benzamide] — 5.5-fold higher, 114 nM
- CC(C(=O)Nc1ccc(Cl)cc1C(=O)N[C@@H](C[C@@H]1C[C@@H](C)NC1=O)C(=O)C(=O)NC1CC1)c1cscn1 (stereo partly drawn) [Example 89, 5-chloro-N-[(1S)-3-(cyclopropylamino)-1-[[(3S,5R)-5-methyl-2-oxo-pyrrolidin-3-yl]methyl]-2,3-dioxo-propyl]-2-(2-thiazol-4-ylpropanoylamino)benzamide] — 2-fold lower, 10.1 nM
- CNC(=O)C(=O)[C@H](C[C@@H]1CCNC1=O)NC(=O)c1cc(Cl)ccc1NC(=O)c1ccnc(C(F)(F)F)c1 [Example 90] — 1.7-fold lower, 12.3 nM
- CNC(=O)C(=O)[C@H](C[C@@H]1C[C@@H](C)NC1=O)NC(=O)c1cc(Cl)ccc1NC(=O)c1cncc(C(F)(F)F)c1 [Example 91, N-[4-chloro-2-[[(1S)-3-(methylamino)-1-[[(3S,5R)-5-methyl-2-oxo-pyrrolidin-3-yl]methyl]-2,3-dioxo-propyl]carbamoyl]phenyl]-5-(trifluoromethyl)pyridine-3-carboxamide] — 3.4-fold lower, 6.1 nM
- C[C@@H]1C[C@@H](C[C@H](NC(=O)c2cc(Cl)ccc2NC(=O)c2ccnc(C(F)F)c2)C(=O)C(=O)NC2CC2)C(=O)N1 [Example 92, N-[4-chloro-2-[[(1S)-3-(cyclopropylamino)-1-[[(3S,5R)-5-methyl-2-oxo-pyrrolidin-3-yl]methyl]-2,3-dioxo-propyl]carbamoyl]phenyl]-2-(difluoromethyl)pyridine-4-carboxamide] — 2.3-fold lower, 9 nM
- CC(C(=O)Nc1ccc(Cl)cc1C(=O)N[C@@H](C[C@@H]1C[C@@H](C)NC1=O)C(=O)C(=O)NC1CC1)c1cscn1 (stereo partly drawn) [Example 93, 5-chloro-N-[(1S)-3-(cyclopropylamino)-1-[[(3S,5R)-5-methyl-2-oxo-pyrrolidin-3-yl]methyl]-2,3-dioxo-propyl]-2-(2-thiazol-4-ylpropanoylamino)benzamide] — 1.6-fold lower, 12.6 nM
- C[C@@H]1C[C@@H](C[C@H](NC(=O)c2cc(Cl)ccc2NC(=O)c2cncc(C(F)(F)F)c2)C(=O)C(=O)NC2CC2)C(=O)N1 [Example 94, N-[4-chloro-2-[[(1S)-3-(cyclopropylamino)-1-[[(3S,5R)-5-methyl-2-oxo-pyrrolidin-3-yl]methyl]-2,3-dioxo-propyl]carbamoyl]phenyl]-5-(trifluoromethyl)pyridine-3-carboxamide] — 1.9-fold lower, 10.6 nM
- CNC(=O)C(=O)[C@H](C[C@@H]1CCNC1=O)NC(=O)c1cc(C(F)(F)F)ccc1NC(=O)C1(C(F)(F)F)CC1 [Example 95, N-[(1S)-3-(methylamino)-2,3-dioxo-1-[[(3S)-2-oxopyrrolidin-3-yl]methyl]propyl]-5-(trifluoromethyl)-2-[[1-(trifluoromethyl)cyclopropane-carbonyl]amino]benzamide] — 2.2-fold higher, 44.7 nM
- CC(C)OC(=O)Nc1ccc(Cl)cc1C(=O)N[C@@H](C[C@@H]1CCNC1=O)C(=O)C(=O)NC1CC1 [Example 96, isopropyl N-[4-chloro-2-[[(1S)-3-(cyclopropylamino)-2,3-dioxo-1-[[(3S)-2-oxopyrrolidin-3-yl]methyl]propyl]carbamoyl]phenyl]carbamate] — 3.4-fold lower, 6 nM
- C[C@@H]1C[C@@H](C[C@H](NC(=O)c2cc(Cl)ccc2NC(=O)C2CC2C(F)(F)F)C(=O)C(=O)NC2CC2)C(=O)N1 (stereo partly drawn) [Example 97, 5-chloro-N-[(1S)-3-(cyclopropylamino)-1-[[(3S,5R)-5-methyl-2-oxo-pyrrolidin-3-yl]methyl]-2,3-dioxo-propyl]-2-[[2-(trifluoromethyl)cyclopropane-carbonyl]amino]benzamide] — 2.7-fold lower, 7.7 nM
- C[C@@H]1C[C@@H](C[C@H](NC(=O)c2cc(Cl)ccc2NC(=O)C2CC2C(F)(F)F)C(=O)C(=O)NC2CC2)C(=O)N1 (stereo partly drawn) [Example 98, 5-chloro-N-[(1S)-3-(cyclopropylamino)-1-[[(3S,5R)-5-methyl-2-oxo-pyrrolidin-3-yl]methyl]-2,3-dioxo-propyl]-2-[[2-(trifluoromethyl)cyclopropane-carbonyl]amino]benzamide] — 2.2-fold lower, 9.5 nM
- C[C@@H]1C[C@@H](C[C@H](NC(=O)c2cc(F)c(F)cc2NC(=O)c2cncc(C(F)(F)F)c2)C(=O)C(=O)NC2CC2)C(=O)N1 [Example 99, N-[2-[[(1S)-3-(cyclopropylamino)-1-[[(3S,5R)-5-methyl-2-oxo-pyrrolidin-3-yl]methyl]-2,3-dioxo-propyl]carbamoyl]-4,5-difluoro-phenyl]-5-(trifluoromethyl)pyridine-3-carboxamide] — 1.6-fold lower, 13 nM
- C[C@@H]1C[C@@H](C[C@H](NC(=O)c2cc(Cl)ccc2NC(=O)c2ccn(CC(F)(F)F)n2)C(=O)C(=O)NC2CC2)C(=O)N1 [Example 100, N-[4-chloro-2-[[(1S)-3-(cyclopropylamino)-1-[[(3S,5R)-5-methyl-2-oxo-pyrrolidin-3-yl]methyl]-2,3-dioxo-propyl]carbamoyl]phenyl]-1-(2,2,2-trifluoroethyl)pyrazole-3-carboxamide] — 3.5-fold lower, 5.9 nM
- COC(=O)Nc1ccc(Cl)cc1C(=O)N[C@@H](C[C@@H]1C[C@@H](C)NC1=O)C(=O)C(=O)NC1CC1 [Example 101, methyl N-[4-chloro-2-[(1S)-3-(cyclopropylamino)-1-[[(3S,5R)-5-methyl-2-oxo-pyrrolidin-3-yl]methyl]-2,3-dioxo-propyl]carbamoyl]phenyl] carbamate] — 2.6-fold lower, 7.8 nM
- O=C(NC1CC1)C(=O)[C@H](C[C@@H]1CCNC1=O)NC(=O)c1cc(Cl)ccc1NC(=O)C1(C(F)(F)F)CC1 [Example 102] — 1.6-fold lower, 12.9 nM
- CNC(=O)C(=O)[C@H](C[C@@H]1C[C@@H](C)NC1=O)NC(=O)c1ccccc1NC(=O)OC [Example 103, methyl N-[2-[[(1S)-3-(methylamino)-1-[[(3S,5R)-5-methyl-2-oxo-pyrrolidin-3-yl]methyl]-2,3-dioxo-propyl]carbamoyl]phenyl] carbamate] — 4.2-fold higher, 86.2 nM
- CNC(=O)C(=O)[C@H](C[C@@H]1C[C@@H](C)NC1=O)NC(=O)c1cc(F)ccc1NC(=O)OC [Example 104, methyl N-[4-fluoro-2-[(1S)-3-(methylamino)-1-[[(3S,5R)-5-methyl-2-oxo-pyrrolidin-3-yl]methyl]-2,3-dioxo-propyl]carbamoyl]phenyl] carbamate] — within 1.5-fold, 15.3 nM
- C[C@@H]1C[C@@H](C[C@H](NC(=O)c2cc(Cl)ccc2NC(=O)N(C)CC2CCC(F)(F)CC2)C(=O)C(=O)NC2CC2)C(=O)N1 [Example 105, 5-chloro-N—((S)-4-(cyclopropylamino)-1-((3S,5R)-5-methyl-2-oxopyrrolidin-3-yl)-3,4-dioxobutan-2-yl)-2-(3-((4,4-difluorocyclohexyl)methyl)-3-methylureido)benzamide] — 1.9-fold lower, 10.9 nM
- CNC(=O)C(=O)[C@H](C[C@@H]1CCNC1=O)NC(=O)c1cc(Cl)ccc1NC(=O)OC [Example 106] — 4.8-fold lower, 4.3 nM
- COC(=O)Nc1ccc(Cl)cc1C(=O)N[C@@H](C[C@@H]1C[C@@H](C)NC1=O)C(=O)C(N)=O [Example 107, methyl N-[2-[[(1S)-3-amino-1-[[(3S,5R)-5-methyl-2-oxo-pyrrolidin-3-yl]methyl]-2,3-dioxo-propyl]carbamoyl]-4-chloro-phenyl]carbamate] — 1.6-fold lower, 12.6 nM
- [2H]C([2H])([2H])OC(=O)Nc1ccc(Cl)cc1C(=O)N[C@@H](C[C@@H]1CCNC1=O)C(=O)C(=O)NC [Example 108, trideuteriomethyl N-[4-chloro-2-[[(1S)-3-(methylamino)-2,3-dioxo-1-[[(3S)-2-oxopyrrolidin-3-yl]methyl]propyl]carbamoyl]phenyl]carbamate] — 4.3-fold lower, 4.8 nM
